# From patent US20260256753A1, “USE OF AN OREXIN 2 RECEPTOR AGONIST FOR IMPROVING RESPIRATORY FUNCTION DURING SLEEP” (TAKEDA PHARMACEUTICAL COMPANY LIMITED, priority 2023, published 2026)
# Key:
# [1] = target: T1, OX2R (Homo sapiens, UniProt O43614); details: OX2R-expressed recombinant cells; cited from earlier work
# T1 sequence (O43614 1-444): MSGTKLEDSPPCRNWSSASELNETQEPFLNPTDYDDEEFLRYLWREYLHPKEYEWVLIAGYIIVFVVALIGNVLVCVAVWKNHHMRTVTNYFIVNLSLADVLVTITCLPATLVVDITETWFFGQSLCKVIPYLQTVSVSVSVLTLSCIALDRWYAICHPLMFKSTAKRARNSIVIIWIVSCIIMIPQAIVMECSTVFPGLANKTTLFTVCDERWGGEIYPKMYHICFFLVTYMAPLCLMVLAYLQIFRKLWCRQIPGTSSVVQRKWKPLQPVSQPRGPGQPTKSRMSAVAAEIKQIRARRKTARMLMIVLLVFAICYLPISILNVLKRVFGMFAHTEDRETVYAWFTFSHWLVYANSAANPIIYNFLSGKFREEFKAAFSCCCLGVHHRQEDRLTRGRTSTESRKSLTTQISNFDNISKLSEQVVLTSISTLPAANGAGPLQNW
# [2] = system: patients with obstructive sleep apnea; assay: Phase 1b crossover study of overnight intravenous infusion in obstructive sleep apnea: safety and tolerability; assay type: in vivo, human; details: for placebo adjusted LS mean change in DBP / placebo adjusted LS mean change in SBP: at predose
# Method: (§1) A phase 1b, randomized, double-blind, placebo-controlled, 3-period crossover study was conducted to evaluate the safety, tolerability, pharmacodynamic, and pharmacokinetic effects of overnight intravenous COMPOUND A in patients with obstructive sleep apnea (OSA). This study was planned to further evaluate COMPOUND A intravenous administration (IV) in adults with OSA, hypothesizing that nonwake-promoting exposures of COMPOUND A would increase genioglossal muscle tone and increase airway patency via the increasing activity of hypoglossal motoneurons. The main goal of this study was to evaluate the mechanistic potential of OX2R agonism for treatment of OSA using COMPOUND A IV infusion to determine appropriate use in future trials with an oral OX2R agonist.
# (§2) Participants were male or female, aged 18 to 75 years inclusive, with OSA diagnosed according to the International Classification of Sleep Disorders-3 (ICSD-3) criteria and an apnea hypopnea index (AHI) of 12 to 50 events/hour of sleep. The study consisted of a screening period, 3 treatment periods separated by 2 washout periods, and a follow-up period. A total of 13 participants were enrolled and randomized, of which 12 (92.3%) participants completed all planned doses of study drug and the study.
# (§3) Eligible participants were randomly assigned (in a double-blinded manner) to 1 of 6 treatment sequences. In each treatment period, participants underwent 3 UACI assessments, a 10-minute evaluation that tested the key biological mechanism that causes OSA (as described by Osman, A. M., et al., 2019, Sleep, 42 (7), 1-10), followed by an overnight polysomnography (PSG). After the first baseline UACI assessment (U1), an IV infusion regimen of COMPOUND A or placebo was administered over approximately 10 hours to achieve specific plasma concentrations to evaluate the effect of COMPOUND A on the UACI and PSG metrics. Target plasma concentrations for the low-dose COMPOUND A IV regimen were 10 ng/mL for the second UACI (U2), 30 ng/ml for the third UACI (U3), and 10 ng/ml for the overnight PSG. Target plasma concentrations for the high-dose COMPOUND A IV regimen were 30 ng/mL for the U2, 90 ng/mL for the U3, and 30 ng/ml for the overnight PSG.
# (§4) To achieve the target exposures for the UACI assessments (U2 and U3), there was a 20-minute loading period, followed by a 15-minute maintenance period for each. The overnight maintenance dose (approximately 490 minutes) covered the duration of a standard overnight PSG (approximately 8 hours). Doses were selected to cover the potential pharmacologically active concentration range for upper airway collapsibility. The concentration of COMPOUND A in solution was such that participants received the same volume of fluid in the low-dose COMPOUND A regimen, the high-dose COMPOUND A regimen, and placebo, allowing the study to be double-blinded and ensuring all participants were infused with the same volume of fluid.
# On Day 1 of each treatment period, participants checked in approximately 3 hours prior to the scheduled dosing time. The procedure started in the evening to reduce the confounding factors of endogenous OX levels on assessments. Start time was adjusted based on the patient's usual bedtime. Following a physical examination, urine drug screen, and alcohol breathalyzer test, participants were fitted with an IV catheter for placebo/COMPOUND A infusion, electroencephalogram (EEG) electrodes to monitor wakefulness, choanal and epiglottic pressure sensors, and a nasal mask and pneumotachograph to measure airflow (Osman, et al. 2019).
# Following the baseline UACI measurements, IV infusion of placebo or COMPOUND A began. COMPOUND A was tested at 2 concentrations in a stepwise manner, consisting of a 20 minute loading period followed by a 15 minute maintenance period per step. The UACI was tested at each concentration during the maintenance period. […]
# [3] = system: patients with obstructive sleep apnea; assay: Phase 1b crossover study in obstructive sleep apnea: overnight polysomnography (PSG); assay type: in vivo, human
# Method: as §1, §2, §3, §4
# Following the baseline UACI measurements, IV infusion of placebo or COMPOUND A began. COMPOUND A was tested at 2 concentrations in a stepwise manner, consisting of a 20 minute loading period followed by a 15 minute maintenance period per step. The UACI was tested at each concentration during the maintenance period. A Karolinska Sleepiness Scale (KSS) was administered immediately prior to each UACI testing period to gauge subjective sleepiness. After the U3 test, a KSS was administered, after which the UACI testing equipment (pressure sensors, genioglossus EMG electrodes) was removed with the exception of EEG electrodes that remained in place to record PSG throughout the evening. Prior to lights off, a final KSS was administered. Lights-off occurred, and participants were then allowed to sleep until the following morning (Day 2). Infusion of COMPOUND A/placebo was maintained throughout the night during the nocturnal PSG (nPSG) and ended approximately 8 hours after lights off. Participants were then discharged on Day 2. […]
# [4] = 30 ng/ml continuously throughout the sleep period
smiles,measurement,setting,value
"COC(=O)N1CCC[C@H](NS(C)(=O)=O)[C@@H]1CO[C@H]1CC[C@@H](c2ccccc2)CC1 (relative stereo) [Compound A, methyl(2R,3S)-3-((methylsulfonyl)amino)-2-(((cis-4-phenylcyclohexyl)oxy)methyl) piperidine-1-carboxylate]",calcium mobilization,[1],increase calcium mobilization
same,participants who experienced drug-related TEAEs,"[2]; all treatment periods (low-dose, high-dose, placebo), 13 participants",23.1%
same,number of drug-related TEAEs,"[2]; all treatment periods (low-dose, high-dose, placebo), all mild",4
same,deaths or serious TEAEs,[2]; during the study,No deaths or serious TEAEs
same,drug related TEAEs,[2]; high dose regimen,no drug related TEAEs
same,placebo adjusted LS mean change in DBP,[2]; high dose regimen,1.84 mmHg
same,placebo adjusted LS mean change in SBP,[2]; high dose regimen,9.01 mmHg
same,consequence of TEAE of blood pressure increased,[2]; low dose regimen,led to study drug discontinuation
same,placebo adjusted LS mean change in DBP,[2]; low dose regimen,0.29 mmHg
same,placebo adjusted LS mean change in SBP,[2]; low dose regimen,2.44 mmHg
same,dose related trend of most frequent TEAE (headache),[2]; low versus high dose regimen,no dose related trend was observed
same,tolerability,"[2]; low-dose and high-dose IV regimens, adult participants with OSA",generally well tolerated with no safety concerns
same,drug-related TEAE of blood pressure increased (number),[2]; low-dose regimen,1
same,drug-related TEAE of myalgia (number),[2]; low-dose regimen,1
same,drug-related TEAEs of headache (number),[2]; low-dose regimen and placebo together,2
same,intensity of TEAEs,"[2]; whole study, moderate headache on low dose regimen, not related to study drug",mild in intensity except for 1 moderate TEAE of headache
same,REM,[3]; [4],significantly decreased
same,ability to fall asleep,[3]; [4],did not cause an inability to fall asleep
same,sleep efficiency,[3]; [4],reducing
same,wake after sleep onset,[3]; [4],increasing
same,arousal threshold in response to ventilatory disturbance,[3]; high-dose regimen,decreased
same,hypoxic burden estimate,[3]; high-dose regimen,≤ 53 %*minutes/hour
same,loop gain,[3]; high-dose regimen,decreased
same,AHI LS mean,[3]; high-dose regimen of 30 ng/ml overnight,less than 30 events/hour
same,decrease in AHI,"[3]; high-dose regimen of 30 ng/ml overnight, statistically and clinically significant",approximately 9 events/hour
same,pharyngeal collapsibility during sleep (Vpassive and Vactive),"[3]; high-dose regimen, OSA endotypes",appeared to decrease
same,hypoxic burden,"[3]; high-dose regimen, placebo-adjusted difference statistically significant",beneficial reduction in hypoxic burden
same,hypoxic burden estimate,[3]; low-dose regimen,≤ 53 %*minutes/hour
